Measured values reported in ChEMBL document CHEMBL5244273, “Tuberculosis: An Overview of the Immunogenic Response, Disease Progression, and Medicinal Chemistry Efforts in the Last Decade toward the Development of Potential Drugs for Extensively Drug-Resistant Tuberculosis Strains” (J Med Chem, 2021).
≈ marks a conversion by molar mass, not a printed value.

Columns and labels:
[1] = test system: Mycobacterium tuberculosis; assay: Potentiation of ethionamide induced antibacterial activity against Mycobacterium tuberculosis W4-E1 harboring EthA Gly343Ala mutant expressing GFP incubated for 5 days by fluorescence based analysis; format: functional, organism-based
[2] = test system: Mycobacterium tuberculosis; assay: Antimycobacterial activity against rifampicin resistant Mycobacterium tuberculosis by broth dilution method; format: functional
[3] = test system: Mycobacterium tuberculosis; assay: Antimycobacterial activity against isoniazid and rifampicin resistant Mycobacterium tuberculosis by broth dilution method; format: functional
[4] = test system: Mycobacterium tuberculosis; assay: Antimycobacterial activity against isoniazid, rifampicin, amikacin and moxifloxacin resistant Mycobacterium tuberculosis by broth dilution method; format: functional
[5] = test system: Mycobacterium tuberculosis; assay: Antimycobacterial activity against extensively drug resistant Mycobacterium tuberculosis H37Rv; format: functional
[6] = test system: Mycobacterium tuberculosis; assay: Antimycobacterial activity against multidrug resistant Mycobacterium tuberculosis H37Rv; format: functional

O=C(CCCC(F)(F)F)N1CCC(c2cncc(Cl)c2)CC1
EC50 [1]: < 1300 nM

CC(C)c1ccc(OCc2cn(C[C@@]3(C)Cn4cc([N+](=O)[O-])nc4O3)nn2)cc1
MIC [2]: 2 µg/mL (≈ 5.02 µM) | MIC [3]: 1 µg/mL (≈ 2.51 µM) | MIC [4]: 4 µg/mL (≈ 10 µM)

CC(C)COC1=NOC2(CCN(C(=O)CCC(F)(F)F)CC2)C1
EC50 [1]: < 140 nM

CC(=O)N1N=C(c2ccc3oc(NC(=O)c4ccccc4)nc3c2)CC1c1cccs1 (configuration not stated)
MIC [5]: 50 µg/mL (≈ 116 µM) | MIC [6]: 12.5 µg/mL (≈ 29 µM)

O=C(CCC(F)(F)F)N1CCC(c2ncc(F)cc2F)CC1
EC50 [1]: < 1300 nM

C[C@]1(Cn2cc(-c3ccc(F)cc3F)nn2)Cn2cc([N+](=O)[O-])nc2O1
MIC [2]: 4 µg/mL (≈ 11 µM) | MIC [3]: 1 µg/mL (≈ 2.76 µM) | MIC [4]: 4 µg/mL (≈ 11 µM)

Cc1cccc(OCc2cn(C[C@@]3(C)Cn4cc([N+](=O)[O-])nc4O3)nn2)c1
MIC [2]: 1 µg/mL (≈ 2.7 µM) | MIC [3]: 1 µg/mL (≈ 2.7 µM) | MIC [4]: 2 µg/mL (≈ 5.4 µM)

C[C@]1(Cn2cc(-c3ccc(Oc4ccccc4)cc3)nn2)Cn2cc([N+](=O)[O-])nc2O1
MIC [2]: 1 µg/mL (≈ 2.39 µM) | MIC [3]: 1 µg/mL (≈ 2.39 µM) | MIC [4]: 1 µg/mL (≈ 2.39 µM)

O=C(CCC(F)(F)F)N1CC(c2cccc(Cl)c2)C1
EC50 [1]: < 75 nM

CC1=NOC2(CCN(C(=O)CCC(F)(F)F)CC2)C1
EC50 [1]: < 140 nM

C[C@]1(Cn2cc(COc3ccc(Br)cc3)nn2)Cn2cc([N+](=O)[O-])nc2O1
MIC [2]: 0.12 µg/mL (≈ 0.276 µM) | MIC [3]: 0.12 µg/mL (≈ 0.276 µM) | MIC [4]: 0.25 µg/mL (≈ 0.574 µM)

COC1=NOC2(CCN(C(=O)CCCl)CC2)C1
EC50 [1]: < 140 nM

C[C@]1(Cn2cc(COc3ccccc3F)nn2)Cn2cc([N+](=O)[O-])nc2O1
MIC [2]: 1 µg/mL (≈ 2.67 µM) | MIC [3]: 0.5 µg/mL (≈ 1.34 µM) | MIC [4]: 1 µg/mL (≈ 2.67 µM)

CC(=O)N1N=C(c2ccc3oc(NC(=O)CCl)nc3c2)CC1c1cccs1 (configuration not stated)
MIC [5]: 12.5 µg/mL (≈ 31 µM) | MIC [6]: 3.12 µg/mL (≈ 7.74 µM)

C[C@]1(Cn2cc(-c3ccc(F)cc3)nn2)Cn2cc([N+](=O)[O-])nc2O1
MIC [2]: 2 µg/mL (≈ 5.81 µM) | MIC [3]: 2 µg/mL (≈ 5.81 µM) | MIC [4]: 2 µg/mL (≈ 5.81 µM)

O=C(CCC(F)(F)F)N1CCC(c2cccc(C(F)(F)F)n2)CC1
EC50 [1]: < 1300 nM

O=C(CCC(F)(F)F)N1CCC2(CC1)CC(OCC(F)(F)F)=NO2
EC50 [1]: < 140 nM

O=C(CCC(F)(F)F)N1CCC(F)(c2cncc(Cl)c2)CC1
EC50 [1]: < 1300 nM

O=C(CCC(F)(F)F)N1CCC(F)(c2ccnc(C(F)(F)F)c2)CC1
EC50 [1]: < 1300 nM

O=C(CCC(F)(F)F)N1CC(C2CCCCC2)C1
EC50 [1]: < 75 nM

Cc1cc(-c2cn(C[C@@]3(C)Cn4cc([N+](=O)[O-])nc4O3)nn2)ccc1F
MIC [2]: 1 µg/mL (≈ 2.79 µM) | MIC [3]: 4 µg/mL (≈ 11.2 µM) | MIC [4]: 2 µg/mL (≈ 5.58 µM)

CCOC1=NOC2(CCN(C(=O)CCC(F)(F)F)CC2)C1
EC50 [1]: < 140 nM

O=C(CCC(F)(F)F)N1CCC(c2ccnc(F)c2)CC1
EC50 [1]: < 1300 nM

O=C(CCC(F)(F)F)N1CCC(F)(c2ccccn2)CC1
EC50 [1]: < 1300 nM

C[C@]1(Cn2cc(COc3ccc(OC(F)(F)F)cc3)nn2)Cn2cc([N+](=O)[O-])nc2O1
MIC [2]: 2 µg/mL (≈ 4.54 µM) | MIC [3]: 2 µg/mL (≈ 4.54 µM) | MIC [4]: 2 µg/mL (≈ 4.54 µM)

O=C(CCC(F)(F)F)N1CCC(c2cncc(C(F)(F)F)c2)CC1
EC50 [1]: < 1300 nM

CCCCCc1cn(C[C@@]2(C)Cn3cc([N+](=O)[O-])nc3O2)nn1
MIC [2]: 8 µg/mL (≈ 25 µM) | MIC [3]: 2 µg/mL (≈ 6.24 µM) | MIC [4]: 8 µg/mL (≈ 25 µM)

O=C(CCC(F)(F)F)N1CCC(c2ccc(F)cn2)CC1
EC50 [1]: < 1300 nM

O=C(CCC(F)(F)F)N1CCC(F)(c2cncc(C(F)(F)F)c2)CC1
EC50 [1]: < 1300 nM

O=C(CCC(F)(F)F)N1CCC(c2ccnc(Cl)c2)CC1
EC50 [1]: < 1300 nM

CC(=O)N1N=C(c2ccc3oc(S)nc3c2)CC1c1cccs1 (configuration not stated)
MIC [5]: > 100 µg/mL | MIC [6]: 25 µg/mL (≈ 72.8 µM)

C[C@]1(Cn2cc(COc3ccc(C(F)(F)F)cc3)nn2)Cn2cc([N+](=O)[O-])nc2O1
MIC [2]: 4 µg/mL (≈ 9.43 µM) | MIC [3]: 4 µg/mL (≈ 9.43 µM) | MIC [4]: 4 µg/mL (≈ 9.43 µM)

Cc1ccc(OCc2cn(C[C@@]3(C)Cn4cc([N+](=O)[O-])nc4O3)nn2)cc1
MIC [2]: 8 µg/mL (≈ 21.6 µM) | MIC [3]: 2 µg/mL (≈ 5.4 µM) | MIC [4]: 8 µg/mL (≈ 21.6 µM)

O=C(CCC(F)(F)F)N1CCC(c2ccc(F)nc2)CC1
EC50 [1]: < 1300 nM

C[C@]1(Cn2cc(COc3cccc(Cl)c3)nn2)Cn2cc([N+](=O)[O-])nc2O1
MIC [2]: 2 µg/mL (≈ 5.12 µM) | MIC [3]: 2 µg/mL (≈ 5.12 µM) | MIC [4]: 4 µg/mL (≈ 10.2 µM)

CCc1ccc(OCc2cn(C[C@@]3(C)Cn4cc([N+](=O)[O-])nc4O3)nn2)cc1
MIC [2]: 4 µg/mL (≈ 10.4 µM) | MIC [3]: 2 µg/mL (≈ 5.2 µM) | MIC [4]: 4 µg/mL (≈ 10.4 µM)

O=C(CCC(F)(F)F)N1CCC(c2cncc(Cl)n2)CC1
EC50 [1]: < 1300 nM

O=C(CCC(F)(F)F)N1CCC(c2cccc(Cl)n2)CC1
EC50 [1]: < 1300 nM

O=C(CCC(F)(F)F)N1CCC(F)(c2ccnc(Cl)c2)CC1
EC50 [1]: < 1300 nM

O=C(CCC(F)(F)F)N1CCC(c2cncc(Cl)c2)CC1
EC50 [1]: < 1300 nM

NC(=O)N1N=C(c2ccc3oc(N)nc3c2)CC1c1cccs1 (configuration not stated)
MIC [5]: 50 µg/mL (≈ 153 µM) | MIC [6]: 12.5 µg/mL (≈ 38.2 µM)

COc1ccc(C2CCN(C(=O)CCC(F)(F)F)CC2)cn1
EC50 [1]: < 1300 nM

O=C(CCC(F)(F)F)N1CCC(c2ccc(F)nc2F)CC1
EC50 [1]: < 1300 nM

CCCOC1=NOC2(CCN(C(=O)CCC(F)(F)F)CC2)C1
EC50 [1]: < 140 nM

C[C@]1(Cn2cc(-c3ccc(C(F)(F)F)cc3)nn2)Cn2cc([N+](=O)[O-])nc2O1
MIC [2]: 4 µg/mL (≈ 10.1 µM) | MIC [3]: 2 µg/mL (≈ 5.07 µM) | MIC [4]: 2 µg/mL (≈ 5.07 µM)

O=C(CCCl)N1CCC2(CC1)CC(C(F)(F)F)=NO2
EC50 [1]: < 140 nM

O=C(CCC(F)(F)F)N1CCC2(CC1)CC(F)=NO2
EC50 [1]: < 140 nM

O=C(CCC(F)(F)F)N1CCC(F)(c2ccnc(F)c2)CC1
EC50 [1]: < 1300 nM

Cc1cc(C2CCN(C(=O)CCC(F)(F)F)CC2)ccn1
EC50 [1]: < 1300 nM

O=C(CCC(F)(F)F)N1CCC(F)(c2ccc(F)nc2)CC1
EC50 [1]: < 1300 nM

O=C(CCC(F)(F)F)N1CCC(c2ccncc2F)CC1
EC50 [1]: < 1300 nM

O=C(CCC(F)(F)F)N1CCC(F)(c2cccnc2)CC1
EC50 [1]: < 1300 nM

Cc1ccccc1OCc1cn(C[C@@]2(C)Cn3cc([N+](=O)[O-])nc3O2)nn1
MIC [2]: 1 µg/mL (≈ 2.7 µM) | MIC [3]: 1 µg/mL (≈ 2.7 µM) | MIC [4]: 1 µg/mL (≈ 2.7 µM)

O=C(CCC(F)(F)F)N1CCC(c2cc(C(F)(F)F)ccn2)CC1
EC50 [1]: < 1300 nM

C[C@]1(Cn2cc(CN3CCOCC3)nn2)Cn2cc([N+](=O)[O-])nc2O1
MIC [2]: 2 µg/mL (≈ 5.72 µM) | MIC [3]: 2 µg/mL (≈ 5.72 µM) | MIC [4]: 2 µg/mL (≈ 5.72 µM)

COc1cccc(C(=O)Nc2nc3cc(C4=NN(C(C)=O)C(c5cccs5)C4)ccc3o2)c1 (configuration not stated)
MIC [5]: 12.5 µg/mL (≈ 27.1 µM) | MIC [6]: 3.12 µg/mL (≈ 6.78 µM)

C[C@]1(Cn2cc(COc3ccccn3)nn2)Cn2cc([N+](=O)[O-])nc2O1
MIC [2]: 0.5 µg/mL (≈ 1.4 µM) | MIC [3]: 0.25 µg/mL (≈ 0.7 µM) | MIC [4]: 0.5 µg/mL (≈ 1.4 µM)

O=C(CCC(F)(F)F)N1CCC2(CC1)CC(Br)=NO2
EC50 [1]: < 140 nM

O=C(CCC(F)(F)F)N1CCC(c2cncc(C(F)(F)F)n2)CC1
EC50 [1]: < 1300 nM

O=C(CCC(F)(F)F)N1CC(c2cc(F)c(F)c(F)c2)C1
EC50 [1]: < 75 nM

CCCCCCOC1=NOC2(CCN(C(=O)CCC(F)(F)F)CC2)C1
EC50 [1]: < 140 nM

C[C@]1(Cn2cc(COc3cccc(F)c3)nn2)Cn2cc([N+](=O)[O-])nc2O1
MIC [2]: 2 µg/mL (≈ 5.34 µM) | MIC [3]: 2 µg/mL (≈ 5.34 µM) | MIC [4]: 2 µg/mL (≈ 5.34 µM)

CC(=O)N1N=C(c2ccc3oc(N)nc3c2)CC1c1cccs1 (configuration not stated)
MIC [5]: 25 µg/mL (≈ 76.6 µM) | MIC [6]: 6.25 µg/mL (≈ 19.1 µM)

CC(=O)N1N=C(c2ccc3oc(-c4ccc(O)cc4)nc3c2)CC1c1cccs1 (configuration not stated)
MIC [5]: 12.5 µg/mL (≈ 31 µM) | MIC [6]: 3.12 µg/mL (≈ 7.73 µM)

Cc1ccc(SCc2cn(C[C@@]3(C)Cn4cc([N+](=O)[O-])nc4O3)nn2)cc1
MIC [2]: 0.25 µg/mL (≈ 0.647 µM) | MIC [3]: 0.5 µg/mL (≈ 1.29 µM) | MIC [4]: 2 µg/mL (≈ 5.18 µM)

O=C(CCC(F)(F)F)N1CCC(c2cncc(F)c2)CC1
EC50 [1]: < 1300 nM

O=C(CCC(F)(F)F)N1CC(c2ccc(F)cc2F)C1
EC50 [1]: < 75 nM

Cc1ccc(OCCc2cn(C[C@@]3(C)Cn4cc([N+](=O)[O-])nc4O3)nn2)cc1
MIC [2]: 1 µg/mL (≈ 2.6 µM) | MIC [3]: 0.25 µg/mL (≈ 0.65 µM) | MIC [4]: 0.25 µg/mL (≈ 0.65 µM)

O=C(CCC(F)(F)F)N1CCC(F)(c2cc(C(F)(F)F)ccn2)CC1
EC50 [1]: < 1300 nM

CCC1=NOC2(CCN(C(=O)CCC(F)(F)F)CC2)C1
EC50 [1]: < 140 nM

C[C@]1(Cn2cc(-c3ccc(OC(F)(F)F)cc3)nn2)Cn2cc([N+](=O)[O-])nc2O1
MIC [2]: 2 µg/mL (≈ 4.87 µM) | MIC [3]: 2 µg/mL (≈ 4.87 µM) | MIC [4]: 1 µg/mL (≈ 2.44 µM)

N#CC1=NOC2(CCN(C(=O)CCC(F)(F)F)CC2)C1
EC50 [1]: < 140 nM

O=C(CCC(F)(F)F)N1CCC(c2cccc(F)n2)CC1
EC50 [1]: < 1300 nM

O=C(CCC(F)(F)F)N1CCC(c2cnc(F)c(F)c2)CC1
EC50 [1]: < 1300 nM

O=C(CCC(F)(F)F)N1CCC(c2cncc(Cl)c2)C1 (configuration not stated)
EC50 [1]: < 1300 nM

O=C(CCC(F)(F)F)N1CCC(c2ccnc(C(F)(F)F)c2)CC1
EC50 [1]: < 1300 nM
